Experimental data as given in patent publication US12472206B2, “Pharmaceutical composition containing cerium compound as active ingredient” (priority 2020, dated 2025).
Entries after “also recorded” stand apart in the source; their conditions may differ.

Experiments:
[1] = tested on: adenine nephropathy model rats; experiment: Animal experiment (2) (Example 7): adenine nephropathy model rats fed with cerium-containing feed, blood analysis; assay type: in vivo
Description: Adenine nephropathy model rats were fed with a dispersion (cerium oxide dispersion) that contains cerium(III) ion as a cerium compound containing trivalent cerium, and cerium oxide.
• Rat: Slc:Wistar rat (male) delivered at 12 weeks of age (Japan SLC, Inc.) • Powder feed: AIN-93G powder feed (Funabashi Farm Co., Ltd.) • Feed for laboratory animal: Labo MR Stock (Nosan Corporation) • Adenine: (Tokyo Chemical Industry Co., Ltd.) • Cerium oxide dispersion: Cerium oxide dispersion prepared in [Preparation of Cerium Oxide Dispersion] (aqueous dispersion of cerium oxide with 10.0% by mass cerium oxide, mole ratio of cerium oxide:cerium(III)=9:1 • Cerium(III) chloride: cerium(III) chloride heptahydrate (Nikki Corporation) • Water or hot water: water passed through a water purifier, and boiled in a pot • Mixer for feed preparation: Compact Kitchen Machine MUM4415JP (Bosch GmbH) • Manual sausage maker: sausage machine (COM4SPORT) • Wing blood collection needle for animal experiment: CL-4597 (CLEA Japan, Inc.) [Preparation of Cerium Oxide Dispersion]
A special feed was prepared by modifying step (ii) for preparing the feed for normal group, as described below. […] Approximately 100 mL of hot water was then added evenly.
(§1) A special feed was prepared by modifying steps (i) and (ii) for (2) Feed for Adenine Group, as described below. (i) (Ade+Dispersion (A)): Weighed was 246.1 g of the powder feed, which was then stirred with a kitchen machine. (ii) (Ade+Dispersion (A)): While keeping the feed under stirring, 0.625 g of adenine was added in small portions, the content was stirred with the kitchen machine for 3 minutes, the feed adhered on the wall surface was scraped off, and the content was stirred again for 3 minutes. Next, while keeping the feed under stirring, 32.7 g of cerium oxide dispersion was added in small portions, the content was stirred with the kitchen machine for 3 minutes, the feed adhered on the wall surface was scraped off, and the content was stirred again for 3 minutes. Approximately 70 mL of hot water was then added evenly.
as §1, with “(ii)” for “A special feed was prepared by modifying steps (i) and (ii) for (2) Feed for Adenine Group, as described below. (i) (Ade+Dispersion (A)): Weighed was 246.1 g of the powder feed, which was then stirred with a kitchen machine. (ii)”, “(B)):” for “(A)):”, “98.2” for “32.7”, “12” for “70”
(1) Rats were weighed, and classified into four groups.
FIGS. 12 to 15 illustrate graphs plotting on the ordinates test values of serum creatinine (CRE), blood urea nitrogen (BUN), serum phosphorus (IP), or alanine aminotransferase (ALT) of the blood samples collected at the time of the dissection, and plotting on the abscissae total molar amount of cerium per 100 g of feed.
The effect of cerium(III) chloride was examined with use of the following feeds (4-1) to (4-3), in place of the (3-1) Feed for adenine+cerium oxide dispersion (A) group, and the (3-2) Feed for adenine+cerium oxide dispersion (B) group described in Preparation of Feeds according to Example 7-1. […]

[2] = Phosphorus adsorption experiment, Example 2-3 (particle 1 vs lanthanum carbonate); assay type: binding; settings: one hour
Description: Three mmol/L aqueous phosphoric acid solutions with pH 2.5 and pH 7.0 were prepared. The pH was adjusted with Bis-Tris HCl buffer solution and glycine-HCl buffer solution (phosphoric acid, sodium chloride, and glycine from FUJIFILM Wako Pure Chemical Corporation; Bis-Tris from Dojindo Laboratories).
A freely selectable amount of particle 1 was added to each of the aqueous solutions.
Each of these dispersions was kept stirred at 38° C. for one hour in a thermostatic chamber.
Also, a freely selectable amount of a commercially available lanthanum carbonate reagent (from Nikki Corporation) was added in the same way, and each dispersion was kept stirred at 38° C. for one hour in a thermostatic chamber.
Each solution was then centrifuged (10,000×g, 5 min) for solid-liquid separation, and the supernatant was collected.
Phosphoric acid remained in the collected supernatant was evaluated by colorimetry, with use of a commercially available phosphoric acid detection reagent (Trade name: PiBlue Phosphate Assay Kit; POPB-500) that contains molybdenum blue and malachite green.
The reciprocal of the mass of the particle required to entirely adsorb 3 mmol of phosphoric acid was defined as adsorptivity to phosphorus, and was illustrated in FIG. 6.

[3] = tested on: 5/6 nephrectomized model rats; settings: 5/6 nephrectomized rats, in feed
Description: Slc:Wistar rat, 5/6 nephrectomized
(1) The 5/6 nephrectomized model rats were weighed, and classified into three groups.
(2) Each group was acclimatized with MR stock feed, under ad libitum feeding and ad libitum water drinking. The feeding cage was conditioned at room temperature 22±2° C., under illumination 12 hours a day.
(3) The animals were then bred with the prepared special feed under ad libitum feeding and ad libitum water drinking. The feeding cage was conditioned similarly to the acclimatization period, at room temperature 22±2° C., under illumination 12 hours a day.
(4) On Days 0, 7, 14, 21, and 28, rats were bred in metabolic cages for 24 hours. The animals were fed with Labo MR stock on Day 0, and with the special feed on days thereafter, during which the amounts of feed consumption, water consumption, urine and feces were measured, and the urine and feces were sampled.
(5) The animals were taken out of the metabolic cage and weighed, followed by blood collection with a winged needle. Approximately 400 μL of blood was collected, incubated at room temperature for one hour, and then centrifuged (1,700×g, 20 min) to obtain serum.
(6) On the final Day 28, the animals were fasted throughout the day, and then dissected. […] The collected blood was centrifuged (1,700×g, 20 min) to obtain serum. Liver, kidney, spleen, small intestine, and stomach of the rats that were exsanguinated to death were sampled. The small intestine and stomach were dissected, removed contents, and rinsed twice with PBS. The above sequence of procedures was repeated three times to assign six animals to each group. […]
The above four items were measured with use of Hitachi 7180 automatic analyzer.
ALT was measured only for blood samples collected on the last day.

[4] = adenine nephropathy rats, in feed, blood collected at dissection

Row | SMILES | effects on CRE, BUN and IP relative to the cerium oxide dispersion, per molar amount of cerium ([1]; adenine group normalized at 100) [times] | alanine aminotransferase (ALT) [1, 4] | blood urea nitrogen (BUN) [1, 4] | serum creatinine (CRE) [1, 4] | serum phosphorus (IP) [1, 4] | mass of the particle required to entirely adsorb 3 mmol of phosphoric acid ([2]; pH 2.5, 38° C.) [g] | mass of the particle required to entirely adsorb 3 mmol of phosphoric acid ([2]; pH 7.0, 38° C.) [g] | blood urea nitrogen (BUN) ([3]; Days 0-28) | serum creatinine (CRE) ([3]; Days 0-28) | serum ALT (GPT) level ([3]; blood of the last day)
1 | O.O.O.O.O.O.O.[Ce+3].[Cl-].[Cl-].[Cl-] [cerium chloride, cerium(III) chloride heptahydrate] | 4 to 9 | equivalent to that in the normal group; also recorded: equivalent to the level of the normal group | declines depending on the cerium chloride content (mol) in 100 g of feed; also recorded: decrease as the cerium chloride content in the feed increased | declines depending on the cerium chloride content (mol) in 100 g of feed; also recorded: decrease as the cerium chloride content in the feed increased | declines depending on the cerium chloride content (mol) in 100 g of feed; also recorded: decrease as the cerium chloride content in the feed increased |  |  |  |  | 
2 | O=C([O-])[O-].O=C([O-])[O-].O=C([O-])[O-].[La+3].[La+3] [lanthanum carbonate] |  |  |  |  |  | 1.15 | 5.95 | slightly increase as compared with the cerium oxide-added groups | slightly increase as compared with the cerium oxide-added groups | distinctively increased as compared with those of the non-added group
